ChEMBL document CHEMBL4251633, “Design, synthesis, biological evaluation and cocrystal structures with tubulin of chiral β-lactam bridged combretastatin A-4 analogues as potent antitumor agents” (Eur J Med Chem, 2018)
Active and inactive are the calls of the source. The rule behind the calls is not given here.

Tests used:
[1] = Acute toxicity in ICR mouse assessed as survival rate at 275 mg/kg, ip measured on day 14 (reference value: 100%); type: organism-based; conditions: in vivo
[2] = tested on: HeLa; assay: Induction of apoptosis in human HeLa cells assessed as late apoptotic cells at 100 nM after 48 hrs by Annexin V-FITC/propidium iodide staining based flow cytometry (reference value: 2%); type: functional
[3] = tested on: HeLa; assay: Induction of apoptosis in human HeLa cells assessed as live cells at 100 nM after 48 hrs by Annexin V-FITC/propidium iodide staining based flow cytometry (reference value: 96.5%); type: functional
[4] = Acute toxicity in ICR mouse assessed as survival rate at 100 mg/kg, ip measured on day 14 (reference value: 100%); type: organism-based; conditions: in vivo
[5] = tested on: Mus musculus; assay: Anti-vascular activity in Balb/c nude mouse assessed as inhibition of VEGF-induced capillary blood vessel formation by measuring reduction in hemoglobin level using sc injected matrigel plug supplemented with 100 nM test compound mixed with VEGF and measured after 1 week by matrigel plug assay; type: functional, organism-based
[6] = Acute toxicity in ICR mouse assessed as death administered ip measured up to 14 days; type: organism-based; conditions: in vivo
[7] = tested on: Mus musculus; assay: Acute toxicity in ICR mouse assessed as death at 100 to 125 mg/kg, ip measured after 1 day; type: organism-based; conditions: in vivo, 24 h
[8] = biological target: Mitotic checkpoint serine/threonine-protein kinase BUB1 beta (Homo sapiens) (UniProt O60566); assay: Induction of BubR1 hyperphosphorylation in human HeLa cells by Western blot analysis; type: cell-based
[9] = tested on: HeLa; assay: Induction of apoptosis in human HeLa cells assessed as necrotic cells at 50 nM after 48 hrs by Annexin V-FITC/propidium iodide staining based flow cytometry (reference value: 0.9%); type: functional
[10] = tested on: HeLa; assay: Induction of apoptosis in human HeLa cells after 48 hrs by Annexin V-FITC/propidium iodide staining based flow cytometry; type: functional, cell-based
[11] = tested on: A2780; assay: cells; conditions: Homo sapiens, A2780, 48 h
Description: Antiproliferative activity against human A2780 cells after 48 hrs by MTT assay

[12] = tested on: HeLa; assay: Upregulation of Cyclin-B1 protein expression in human HeLa cells at 50 to 200 nM by Western blot analysis; type: functional, cell-based
[13] = tested on: HeLa; assay: Upregulation of cleaved PARP1 protein expression in human HeLa cells after 48 hrs by Western blot analysis; type: functional, cell-based
[14] = tested on: A2780; assay: Antitumor activity against human A2780 cells xenografted in Balb/c nude mouse assessed as tumor volume inhibition at 8 mg/kg, ip once in every 2 days measured up to 14 days relative to control; type: functional
[15] = tested on: HeLa; assay: Induction of apoptosis in human HeLa cells assessed as live cells at 50 nM after 48 hrs by Annexin V-FITC/propidium iodide staining based flow cytometry (reference value: 96.5%); type: functional
[16] = tested on: Mus musculus; assay: Acute toxicity in ICR mouse assessed as death at 100 mg/kg, ip measured after 2 days; type: organism-based; conditions: in vivo, 48 h
[17] = tested on: SK-OV-3; assay: Antiproliferative activity against human SKOV3 cells after 48 hrs by MTT assay; conditions: SK-OV-3, 48 h
[18] = tested on: Mus musculus; assay: Acute toxicity in ICR mouse assessed as death at 100 to 275 mg/kg, ip measured after 5 to 14 days; type: organism-based; conditions: in vivo
[19] = tested on: HeLa; assay: Upregulation of p53 protein expression in human HeLa cells after 48 hrs by Western blot analysis; type: functional, cell-based
[20] = tested on: HeLa; assay: Upregulation of Bax protein expression in human HeLa cells after 48 hrs by Western blot analysis; type: functional, cell-based
[21] = tested on: HeLa; assay: Cell cycle arrest in human HeLa cells assessed as accumulation at G2/M-phase at 25 to 50 nM after 24 hrs by propidium iodide staining based flow cytometry; type: functional
[22] = tested on: MDA-MB-231; assay: Anticlonogenic activity against human MDA-MB-231 cells incubated for 48 hrs followed by replacement with fresh medium measured after 7 to 10 days by gentian violet staining based assay; type: functional, cell-based
[23] = tested on: Mus musculus; assay: Toxicity in Balb/c nude mouse xenografted with human A2780 cells assessed as abnormality in spleen at 8 mg/kg, ip once in every 2 days measured after 14 days by H and E staining based assay; type: organism-based; conditions: in vivo, 336 h
[24] = tested on: Mus musculus; assay: Toxicity in Balb/c nude mouse xenografted with human A2780 cells assessed as abnormality in kidney at 8 mg/kg, ip once in every 2 days measured after 14 days by H and E staining based assay; type: organism-based; conditions: in vivo, 336 h
[25] = tested on: HeLa; assay: Induction of apoptosis in human HeLa cells assessed as live cells at 200 nM after 48 hrs by Annexin V-FITC/propidium iodide staining based flow cytometry (reference value: 96.5%); type: functional
[26] = (§1) Inhibition of pig brain tubulin polymerization measured every 1 min for 20 mins by spectrophotometric method; set-up: species or system Sus scrofa
[27] = species on record: Sus scrofa; assay: as §1
[28] = tested on: A2780; assay: Antitumor activity against human A2780 cells xenografted in Balb/c nude mouse assessed as tumor weight inhibition at 8 mg/kg, ip once in every 2 days measured up to 14 days; type: functional, organism-based
[29] = tested on: HeLa; assay: Induction of apoptosis in human HeLa cells assessed as necrotic cells at 200 nM after 48 hrs by Annexin V-FITC/propidium iodide staining based flow cytometry (reference value: 0.9%); type: functional
[30] = tested on: HeLa; assay: Induction of apoptosis in human HeLa cells assessed as early apoptotic cells at 50 nM after 48 hrs by Annexin V-FITC/propidium iodide staining based flow cytometry (reference value: 0.7%); type: functional
[31] = tested on: A2780; assay: Antitumor activity against human A2780 cells xenografted in Balb/c nude mouse assessed as induction of tumor necrosis at 8 mg/kg, ip once in every 2 days measured after 14 days by H and E staining based assay; type: functional, organism-based
[32] = tested on: HeLa; assay: Induction of apoptosis in human HeLa cells assessed as late apoptotic cells at 50 nM after 48 hrs by Annexin V-FITC/propidium iodide staining based flow cytometry (reference value: 2%); type: functional
[33] = tested on: HeLa; assay: Induction of histone-H3 phosphorylation in human HeLa cells by Western blot analysis; type: cell-based
[34] = tested on: HeLa; assay: Induction of apoptosis in human HeLa cells assessed as early apoptotic cells at 200 nM after 48 hrs by Annexin V-FITC/propidium iodide staining based flow cytometry (reference value: 0.7%); type: functional
[35] = tested on: HeLa; assay: Induction of apoptosis in human HeLa cells assessed as early apoptotic cells at 100 nM after 48 hrs by Annexin V-FITC/propidium iodide staining based flow cytometry (reference value: 0.7%); type: functional
[36] = Acute toxicity in ICR mouse assessed as survival rate at 150 mg/kg, ip measured on day 14 (reference value: 100%); type: organism-based; conditions: in vivo
[37] = tested on: HeLa; assay: Inhibition of alpha-tubulin polymerization in human HeLa cells assessed as increase in ratio of supernatant faction to pellet fraction at 500 nM after 6 hrs by Western blot analysis; type: cell-based
[38] = Acute toxicity in ICR mouse assessed as survival rate at 200 mg/kg, ip measured on day 14 (reference value: 100%); type: organism-based; conditions: in vivo
[39] = Growth inhibition of HOSEC at 1 uM after 48 hrs by MTT assay relative to control; conditions: human, HOSEC cells; read-out: GI
[40] = tested on: Mus musculus; assay: Anti-vascular activity in Balb/c nude mouse assessed as inhibition of VEGF-induced capillary blood vessel formation using sc injected matrigel plug supplemented with 100 nM test compound mixed with VEGF and measured after 1 week by matrigel plug assay; type: functional, organism-based

Mitotic checkpoint serine/threonine-protein kinase BUB1 beta (Homo sapiens), sequence (O60566 whole entry): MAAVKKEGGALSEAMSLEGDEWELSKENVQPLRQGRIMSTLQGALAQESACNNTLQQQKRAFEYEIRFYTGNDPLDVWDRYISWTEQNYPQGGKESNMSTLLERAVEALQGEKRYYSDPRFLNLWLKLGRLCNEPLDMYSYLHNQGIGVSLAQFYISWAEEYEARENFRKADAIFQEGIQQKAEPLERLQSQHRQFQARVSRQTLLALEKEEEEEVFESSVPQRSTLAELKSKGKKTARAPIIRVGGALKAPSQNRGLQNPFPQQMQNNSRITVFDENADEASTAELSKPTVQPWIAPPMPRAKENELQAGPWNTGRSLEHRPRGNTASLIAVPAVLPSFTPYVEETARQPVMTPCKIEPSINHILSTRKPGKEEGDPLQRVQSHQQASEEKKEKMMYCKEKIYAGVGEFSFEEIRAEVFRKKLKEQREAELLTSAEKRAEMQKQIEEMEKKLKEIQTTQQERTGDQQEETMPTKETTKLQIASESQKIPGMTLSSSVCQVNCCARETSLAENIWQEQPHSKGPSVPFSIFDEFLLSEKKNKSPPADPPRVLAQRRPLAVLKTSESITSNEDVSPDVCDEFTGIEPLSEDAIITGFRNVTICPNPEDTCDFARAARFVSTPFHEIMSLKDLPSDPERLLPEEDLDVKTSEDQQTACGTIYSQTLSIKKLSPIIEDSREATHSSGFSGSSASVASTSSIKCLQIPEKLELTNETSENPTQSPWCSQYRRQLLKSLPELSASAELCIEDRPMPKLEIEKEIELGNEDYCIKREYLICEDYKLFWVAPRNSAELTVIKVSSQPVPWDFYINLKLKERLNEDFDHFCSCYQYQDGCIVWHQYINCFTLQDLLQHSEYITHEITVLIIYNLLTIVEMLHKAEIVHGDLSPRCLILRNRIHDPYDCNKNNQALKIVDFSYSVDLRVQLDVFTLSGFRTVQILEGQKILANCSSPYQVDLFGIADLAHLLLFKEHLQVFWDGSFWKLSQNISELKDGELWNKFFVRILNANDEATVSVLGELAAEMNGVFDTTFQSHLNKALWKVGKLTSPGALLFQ

COc1ccc([C@H]2[C@H](C)C(=O)N2c2cc(OC)c(OC)c(OC)c2)cc1O
survival at 14 day [1]: 10%
Activity [2]: 29.9%
Activity [3]: 27.3%
survival at 14 day [4]: 90%
inhibition [5]: Active
LD50 at 336 h [6]: 136 mg/kg
Activity [7]: Non-Toxic
Activity [8]: Dose-dependent effect
Activity [9]: 5.3%
Activity [10]: Dose-dependent effect
IC50 [11]: 2 nM
Activity [12]: Active
Activity [13]: Dose-dependent effect
inhibition in vivo at 8 mg/kg [14]: 76.3%
Activity [15]: 42%
Activity [16]: Non-Toxic
IC50 [17]: 3 nM
Activity [18]: Non-Toxic
Activity [19]: Dose-dependent effect
Activity [20]: Dose-dependent effect
Activity [21]: Active
Activity [22]: Dose-dependent effect
Activity [23]: Non-Toxic
Activity [24]: Non-Toxic
Activity [25]: 21.6%
IC50 [26]: 1700 nM
inhibition [27]: Dose-dependent effect
inhibition [28]: Active
Activity [29]: 7.2%
Activity [30]: 29.3%
Activity [31]: Active
Activity [32]: 23.4%
Activity [33]: Dose-dependent effect
Activity [34]: 37.5%
Activity [35]: 35.2%
survival at 14 day [36]: 40%
tubulin polymerization inhibition (active/inactive) [37]: Active
survival at 14 day [38]: 30%
inhibition at 48 h, 1 µM [39]: < 50%
inhibition [40]: Active
